Reference: ChEMBL document CHEMBL5543158, “Design of Evodiamine-Glucose Conjugates with Improved In Vivo Antitumor Activity” (J Med Chem, 2024)
Converted amounts (≈) assume the structure as drawn. The source made the active and inactive calls. The rule behind the calls is not given here.

Legend:
[1] = test system: HCT-116; experiment: Induction of apoptosis in human HCT116 cells assessed as accumulation of cells at S phase at 0.2 uM measured after 48 hrs by Annexin V-PI Flow cytometry assay (reference value: 31.25%); type: functional
[2] = test system: HCT-116; experiment: Induction of apoptosis in human HCT116 cells assessed as accumulation of cells at G1 phase at 0.1 uM measured after 48 hrs by Annexin V-PI Flow cytometry assay (reference value: 51.12%); type: functional
[3] = Unbound drug concentration in mouse plasma at 2 uM; type: ADME, cell-free
[4] = Solubility of the compound in double distilled water measured upto 30 mins by UV-vis spectrophotometry; type: physicochemical
[5] = test system: HCT-116; experiment: Induction of apoptosis in human HCT116 cells assessed as accumulation of cells at G1 phase at 0.02 uM measured after 48 hrs by Annexin V-PI Flow cytometry assay (reference value: 51.12%); type: functional
[6] = test system: HCT-116; experiment: Antiproliferative activity against human HCT116 cells in presence of 5 uM phloretin measured after 72 hrs by CCK-8 assay; type: functional, cell-based; details: HCT-116, 72 h
[7] = test system: HCT-116; experiment: Induction of apoptosis in human HCT116 cells assessed as accumulation of cells at S phase at 0.05 uM measured after 48 hrs by Annexin V-PI Flow cytometry assay (reference value: 31.25%); type: functional
[8] = MRT (0 to t) in mouse at 20 mg/kg, ip measured upto 24 hrs; type: ADME, organism-based; details: in vivo
[9] = test system: HCT-116; experiment: Induction of apoptosis in human HCT116 cells assessed as accumulation of cells at S phase at 0.1 uM measured after 48 hrs by Annexin V-PI Flow cytometry assay (reference value: 31.25%); type: functional
[10] = AUC (0 to t)in mouse at 20 mg/kg, ip measured upto 24 hrs; type: ADME, organism-based; details: in vivo
[11] = test system: HCT-116; experiment: Induction of apoptosis in human HCT116 cells assessed as accumulation of cells at G2 phase at 0.02 uM measured after 48 hrs by Annexin V-PI Flow cytometry assay (reference value: 17.63%); type: functional
[12] = test system: HCT-116; experiment: In vivo antitumor effect in human HCT-116 cells xenografted mouse model assessed as tumor growth inhibition at 20 mg/kg, ip twice a day administered 21 consecutive days; type: functional; details: read-out: TGI
[13] = test system: HCT-116; experiment: Pro-oxidant effect in human HCT-116 cells assessed as induction of reactive oxygen level (ROS) measured after 12 hrs by 2',7'-dichloro-fluorescein diacetate (DCFH-DA) fluorescent probe based flow cytometry; type: functional, cell-based; details: dose 0.02-0.5 µM
[14] = Cytotoxicity against HUVEC after 72 hrs by CCK-8 assay; type: toxicity, cell-based; details: human, HUVEC cells
[15] = test system: HCT-116; experiment: Induction of apoptosis in human HCT116 cells assessed as accumulation of cells at G1 phase at 0.05 uM measured after 48 hrs by Annexin V-PI Flow cytometry assay (reference value: 51.12%); type: functional
[16] = species on record: Homo sapiens; experiment: Inhibition of DNA topoisomerase 2 (unknown origin) mediated supercoiled DNA relaxation activity at 50 uM by agarose gel electrophoresis analysis
[17] = Toxicity in mouse xenografted with human HCT-116 cells assessed as organ damage by measuring change in liver at 10 mg/kg, ip twice a day administered 21 consecutive days; type: organism-based; details: in vivo
[18] = test system: HCT-116; experiment: Antimigratory activity against human HCT116 cells assessed as inhibition of cell migration at 0.05 microM incubated for 24 hrs by wound healing assay relative to control; type: functional; parameters: scale not given: the % may be the effect or the level left
[19] = AUC (0 to t)in mouse at 10 mg/kg, ip measured upto 24 hrs; type: ADME, organism-based; details: in vivo
[20] = Plasma protein binding mouse plasma at 2 uM; type: ADME, cell-free; details: read-out: PPB (converted)
[21] = test system: HCT-116; experiment: Induction of apoptosis in 100 pmol GLUT1 siRNA treated human HCT-116 cells assessed as late apoptotic cells at 50 nM incubated for 48 hrs (reference value: 17.13%); type: functional
[22] = test system: HCT-116; experiment: Induction of apoptosis in 100 pmol GLUT1 siRNA treated human HCT-116 cells assessed as late apoptotic cells at 50 nM incubated for 48 hrs (reference value: 13.36%); type: functional
[23] = test system: HCT-116; experiment: In vivo antitumor effect in human HCT-116 cells xenografted mouse model assessed as decrease in dense tumor tissue at 10 to 20 mg/kg, ip twice a day administered 21 consecutive days by H and E staining based assay; type: functional, organism-based; details: dose 10-20 mg/kg
[24] = Cmax in mouse at 20 mg/kg, ip measured upto 24 hrs; type: ADME, organism-based; details: in vivo
[25] = test system: HCT-116; experiment: In vivo antitumor effect in human HCT-116 cells xenografted mouse model assessed as tumor growth inhibition at 10 mg/kg, ip twice a day administered 21 consecutive days; type: functional; details: read-out: TGI
[26] = test system: HCT-116; experiment: Induction of apoptosis in human HCT116 cells assessed as accumulation of cells at G1 phase at 0.2 uM measured after 48 hrs by Annexin V-PI Flow cytometry assay (reference value: 51.12%); type: functional
[27] = test system: HCT-116; experiment: Antimigratory activity against human HCT116 cells assessed as wound healing rate at 0.05 to 0.002 microM incubated for 24 hrs by wound healing assay (reference value: 62%); type: functional; details: dose 0.05-0.002 µM, at 0.002 to 0.05 µM
[28] = test system: HCT-116; experiment: Reduction in GSH level in human HCT-116 cells assessed as reduced GSH content incubated for 12 hrs; type: functional, cell-based; details: dose 0.1-2 µM
[29] = test system: HCT-116; experiment: Pro-oxidant effect in human HCT-116 cells assessed as induction of reactive oxygen level (ROS) measured after 12 hrs by flow cytometry using the 2',7'-dichloro-fluorescein diacetate (DCFH-DA) fluorescent probe assay; type: functional, cell-based; details: dose 0.02-0.5 µM
[30] = test system: HCT-116; experiment: Anti-invasive activity against human HCT116 cells assessed as decrease in number of cell migration into lower compartment incubated for 24 hrs by transwell assay; type: functional, cell-based; details: dose 0.02-0.05 µM
[31] = MRT (0 to t) in mouse at 10 mg/kg, ip measured upto 24 hrs; type: ADME, organism-based; details: in vivo
[32] = Toxicity in mouse xenografted with human HCT-116 cells assessed as organ damage by measuring change in heart at 10 mg/kg, ip twice a day administered 21 consecutive days; type: organism-based; details: in vivo

For `CN1c2ccc(F)cc2C(=O)N2CCc3c([nH]c4ccc(O[C@@H]5O[C@H](CO)[C@@H](O)[C@H](O)[C@H]5O)cc34)[C@H]21`, the Activity [1] was 5.6%, the Activity [2] was 1.57% and the “Cp(f)” value [3] was 85.1 ng/mL. The solubility at 0.5 h [4] was 2150 µg/mL (≈ 4.3 mM), the Activity [5] was 43.27% and the IC50 [6] was 210 nM. For the same molecule, the Activity [7] was 32%, the MRT last at 24 h [8] was 59.5 min and the Activity [9] was 9.44%. It also gave an AUC(0-t) at 24 h [10] of 8430 ng·h/mL, an Activity [11] of 30.19% and an inhibition in vivo at 20 mg/kg [12] of 82%. For the same molecule, the Activity [13] was “Dose-Dependent Effect”, the IC50 at 72 h [14] was 221 nM and the Activity [15] was 10.48%. The inhibition [16] was “Active”, the Activity [17] was “Non-Toxic” and the Activity [18] was 100%. It also gave an AUC(0-t) at 24 h [19] of 4010 ng·h/mL, a fraction unbound at 2 µM [20] of 0.101 and an Activity [21] of 21.75%. For the same molecule, the Activity [22] was 22.61%, the Activity [23] was “Active” and the Cmax [24] was 8840 ng/mL. It also gave an inhibition in vivo at 10 mg/kg [25] of 72%, an Activity [26] of 1.56% and an Activity [27] of 1.1%. The Activity [28] was “Dose-Dependent Effect”, the Activity [29] was “Dose-Dependent Effect” and the Activity [30] was “Dose-Dependent Effect”. The MRT last at 24 h [31] was 48.1 min and the Activity [32] was “Non-Toxic”.
